Assay results as given in patent publication US10154970B2, “Methods for immunomodulation of cancer and infectious disease therapy” (The Regents of the University of California, priority 2014, dated 2018).
Like-named read-outs stand apart in the source and are kept apart here.

What was measured:
[1] = test system: IFN-γ; assay: Experiment 5: serum IFN-γ cytokine analysis; type: in vivo, human MUC1.Tg C57BL/6 mice; details: TRIP 100 mg/kg or letrozole 0.8 mg/kg daily oral 14 days
Method: FIG. 13. Effects of TRIP on serum IFN-γ compared to estradiol and letrozole. Serum IFN-γ from untreated control, TRIP (100 mg/kg), estradiol (E2; 25 μg/kg), and letrozole (0.8 mg/kg) groups were analyzed following daily treatment for 14 days (n=8 all groups). **p<0.01, ***p<0.001.
TRIP and letrozole were prepared in DMSO and peanut oil as described above in Experiment 2 and administered daily for 14 days by oral gavage (100 μL). Estradiol was dissolved in 100% ethanol, diluted in PBS to achieve the desired concentration, and then administered daily for 14 days by s.c. injection at rotating sites using a 25-gauge needle. In Week 19, the study was terminated, 24 hours after the last treatments, and serum and spleens were collected for surface marker and Treg analyses.

[2] = test system: mouse breast cancer cells expressing the PV target antigen (BP25); assay: Example 6: tumor volume of breast cancer allografts; type: in vivo, C57BL/6 wild type mice; details: three daily oral doses TRIP 100 mg/kg before each of four weekly 100 μg PV; Days 22 and 25
Method: Antitumor effects and serum IFN-γ immune response to peptide vaccine immunotherapy alone and in combination with TRIP immunomodulator. Each of four weekly 100-μg injections of peptide vaccine (PV) was preceded by three daily oral doses of TRIP (100 mg/kg). All mice were implanted with breast cancer allografts on Day 0, and serum was collected on Day 28 following four weeks of treatment. Tumor volumes were measured twice each week. For all treatment groups, n=8.
A total of 32 female C57BL/6 wild type mice were assigned to four treatment groups (n=8): Control; TRIP (i.e., ospemifene) 100 mg/kg; tecemotide (L-BLP25) peptide vaccine (PV) (100 μg); and TRIP 100 mg/kg combined with 100 μg PV. On Day 0 of the study, all 32 mice were subcutaneously implanted with 1.0×10^6 mouse breast cancer cells expressing the PV target antigen (BP25). Two days later, mice began a three-day regimen of once daily 100 mg/kg TRIP administered orally. On Day 5, mice were administered their first weekly 100 μg dose of PV by subcutaneous injection. This treatment schedule was repeated for a total of four weeks. Tumor growth was assessed twice weekly. All mice were euthanized on Day 28 for the collection of serum and spleens to assess immune response to treatment. Immune response was assessed by performing IFN-γ ELISpot.

[3] = test system: pro-inflammatory cytokines (IL-6, IP-10, MIG, IL-1β, KC)
Method: Serum was analyzed by multiplex immunoassay 24 hours following the last dose of TRIP at each time point.
Following induction of lung cancer as described (Wurz G T. et al., J. Transl. Med., 11:64 (2013)), mice were randomized into four treatment groups: Control; and TRIP (i.e., ospemifene) 5, 25, and 50 mg/kg (n=12, all groups). TRIP and control solutions were orally administered by gavage according to treatment group. After 30 days of treatment (Week 20), a total of 16 mice, four from each treatment group, were euthanized, and whole blood was collected by cardiac puncture. The remaining mice continued daily TRIP treatments. An additional 16 mice, four from each treatment group, were euthanized following 60 (Week 24) and 90 (Week 28) days of treatment, and whole blood and livers were collected. Serum samples were subjected to multiplex cytokine analysis for TH1 (IL-2, IL-12, IFN-γ, TNF-α), TH2 (IL-4, IL-5, IL-10, IL-13) and inflammatory cytokines (MIP-1α, IP-10, MIG, IL-1β, IL-6, KC).
Terminal serum pro-inflammatory cytokines (IL-6, IP-10, MIG, IL-1β, KC) were analyzed 24 hours after the last dose at each time point (FIG. 7).

[4] = test system: IFN-γ; assay: Example 6: IFN-γ ELISpot response to BP25 peptide in allograft-bearing mice; type: in vivo, C57BL/6 wild type mice; details: Day 28, TRIP 100 mg/kg + PV 100 μg
Method: IFN-γ immune response to scrambled and BP25 peptides following treatment with control (n=5), TRIP 100 mg/kg (n=6), PV 100 μg (n=6) and the TRIP+PV (n=6) combination. Each of four weekly 100 μg injections of peptide vaccine (PV) was preceded by three daily oral doses of TRIP. All mice were implanted with breast cancer allografts on Day 0, and spleens were collected for enzyme-linked immunosorbent spot (ELISpot) analysis on Day 28 following four weeks of treatment. The BP25 peptide is a 25-mer and the target antigen of the PV, while the scrambled peptide is a control peptide containing the same 25 amino acids in a scrambled arrangement.
On Day 0 of the study, all 32 mice were subcutaneously implanted with 1.0×10^6 mouse breast cancer cells expressing the PV target antigen (BP25). Two days later, mice began a three-day regimen of once daily 100 mg/kg TRIP administered orally. On Day 5, mice were administered their first weekly 100 μg dose of PV by subcutaneous injection. This treatment schedule was repeated for a total of four weeks. Tumor growth was assessed twice weekly. All mice were euthanized on Day 28 for the collection of serum and spleens to assess immune response to treatment. Immune response was assessed by performing IFN-γ ELISpot.

[5] = test system: IL-4
Method: (§1) A total of 43 wild type C57BL/6 mice were assigned to four different treatment groups: Control (n=10); and TRIP (i.e., ospemifene) 10, 50, and 100 mg/kg (n=11, all TRIP groups). All mice received a full course of tecemotide (L-BLP25) peptide vaccine (PV) immunotherapy (eight weekly 10 μg doses administered subcutaneously (s.c.) as described in Wurz G T. et al., J. Transl. Med., 11:64 (2013)). During the final 16 days of immunotherapy, mice received daily oral doses of TRIP according to treatment group assignment. TRIP oral dosing solutions were prepared by dissolving an appropriate amount of the drug in pure dimethyl sulfoxide (DMSO) and then adding peanut oil to the desired final concentration (final DMSO concentration was 2%). All doses were administered in a volume of 100 μl using 20-gauge stainless steel oral feeding needles. Control mice were given diluent only. Forty-eight hours following the final dose of PV, all mice were euthanized for the collection of blood for cytokine analysis by multiplex and spleens for assessing immune response by enzyme-linked immunosorbent spot (ELISpot) assay.
(§2) Data are expressed as the number of spot forming cells (SFC)/500,000 lymphocytes following exposure to medium (no peptide), scrambled peptide, and BP25 peptide.

[6] = test system: T-cell surface markers (CD4, CD8, PD-1, CD28); assay: Experiment 5: T-cell surface markers of spleen lymphocytes by flow cytometry; type: in vivo, human MUC1.Tg C57BL/6 mice; details: TRIP 100 mg/kg or letrozole 0.8 mg/kg daily oral 14 days
Method: FIG. 11. Lymphocyte phenotypes following different hormonal treatments. (A) CD3+CD4+; (B) CD3+CD8+; (C) CD3+CD28+; (D) CD8+CD28+; (E) CD3+PD-1+; and (F) CD8+PD-1+; T cell surface markers were stained with indicated antibodies after […] of TRIP (100 mg/kg), estradiol (E2; 25 μg/kg), and letrozole (0.8 mg/kg) treatments (n=8 all groups).
A total of 32 female human MUC1.Tg C57BL/6 mice, starting at approximately six weeks of age, were treated with urethane as described (Wurz G T. et al., J. Transl. Med., 11:64 (2013)). Two weeks following the final dose of urethane (Week 17), the mice were randomized into four treatment groups of approximately equal average weight (n=8, all groups): Control (no treatment); TRIP (i.e., ospemifene) 100 mg/kg; estradiol 25 μg/kg; and letrozole 0.8 mg/kg. TRIP and letrozole were prepared in DMSO and peanut oil as described above in Experiment 2 and administered daily for 14 days by oral gavage (100 μL). Estradiol was dissolved in 100% ethanol, diluted in PBS to achieve the desired concentration, and then administered daily for 14 days by s.c. injection at rotating sites using a 25-gauge needle. In Week 19, the study was terminated, 24 hours after the last treatments, and serum and spleens were collected for surface marker and Treg analyses.
After two weeks of treatment, lymphocytes were isolated from spleen. T-cell surface markers (CD4, CD8, PD-1, CD28) and regulatory T cells (Tregs) were analyzed by flow cytometry.

[7] = test system: IFN-γ; details: for antigen-specific immune response to the PV: short-course treatment
Method: FIG. 5. Effect of TRIP on the immune response to an antigen-specific peptide vaccine (PV). Mice received 8 weekly 10-μg doses of PV and daily oral TRIP treatment for the final 16 days of the study. Lymphocytes were isolated 48 hours after the final dose of PV for the enzyme-linked immunosorbent spot (ELISpot) assay. Data are expressed as the number of spot forming cells (SFC)/500,000 lymphocytes following exposure to medium (no peptide), scrambled peptide, and BP25 peptide.
as §1, §2

[8] = test system: regulatory T cell (Treg); details: chronic daily TRIP 50 mg/kg + two cycles of PV
Method: A total of 55 mixed-sex hMUC1.Tg C57BL/6 mice, starting at approximately five weeks of age, were treated with urethane as described above. Approximately six weeks after the last dose of urethane, mice were randomized into four treatment groups of approximately equal average weight: Control (n=22); TRIP (i.e., ospemifene) 50 mg/kg (n=16); tecemotide (L-BLP25) peptide vaccine (PV) (n=6); and TRIP+PV (n=11). At this time (Week 21), mice assigned to the […] began treatment with the first of two cycles consisting of eight weekly 10 μg doses each, with approximately four weeks between cycles. Cycle 1 was administered during Weeks 21-28, and Cycle 2 from Weeks 32-39. The PV was prepared and administered as described above. Mice in the TRIP groups began daily oral treatment in Week 31, which continued through the end of the study (approximately eight weeks of dosing). TRIP was prepared and administered as described above. Mice not assigned to TRIP treatment received daily oral doses of diluent. At the conclusion of the study, 48 h after the final dose of PV and 24 h after the last dose of TRIP, all mice were euthanized for the collection of serum and spleens, which were processed as described above for multiplex serum cytokine, Treg, and CTL analyses.

[9] = TRIP 10, 50, 100 mg/kg daily oral final 16 days + 8 weekly 10 μg PV s.c.

OCCOc1ccc(/C(=C(/CCCl)c2ccccc2)c2ccccc2)cc1 [TRIP, Z-2-[4-(4-chloro-1,2-diphenyl-but-1-enyl)-phenoxy]ethanol]
serum IFN-γ concentrations compared to estradiol [1]: significantly increased | tumor volume compared to the control group, PV in combination with TRIP [2]: reduced tumor volume | pro-inflammatory serum cytokine levels ([3]; TRIP 5, 25, 50 mg/kg daily oral, 30, 60, 90 days, compared to control group): decreasing levels | serum IL-6 levels, control vs all doses of TRIP ([3]; at 28 weeks (90 days of treatment)): Differences | T cell immune response by ELISpot to the target antigen (BP25), PV in combination with TRIP [4]: specific IFN-γ responses | T cell immune response by ELISpot, PV in combination with TRIP compared to PV alone [4]: increased immune response | IL-4 response, PV + 50 mg/kg TRIP vs PV alone ([5]; TRIP 50 mg/kg daily oral final 16 days + PV): No significant difference | IL-4 immune response by ELISpot, TRIP combined with PV [5, 9]: decrease with TRIP dose | expression of surface markers, including CD8 and CD28, vs control [6]: no difference | IFN-γ immune response by ELISpot, TRIP combined with PV vs PV alone [7, 9]: significantly increase | antigen-specific immune response to the PV ([7]; high (100 mg/kg) dose of TRIP): significantly increased | antigen-specific immune response to the PV ([7]; low (10 mg/kg) dose of TRIP): significantly increased | PV-induced immune response as assessed by Treg expression [8]: did not significantly affect
